Laboratory results as given in patent publication US20240425456A1, “DEGRADER” (ASKA PHARMACEUTICAL CO., LTD., priority 2021, published 2024).

Key:
Assay type in all cases: cell-based
JAK3 = biological target: T1, JAK3 (Homo sapiens, UniProt P52333); assay: Degradation-inducing effect on JAK in Jurkat cells (chemiluminescent Western blotting), JAK3; conditions: 1 μmol/L, 6 hours, corrected by GAPDH, DMSO as 100%, read-out: JAK protein ratio of Jurkat cells after treatment of each test compound: JAK3
T1 construct: endogenous in cells; host or cells: Jurkat cells
T1 sequence (P52333 1-1124): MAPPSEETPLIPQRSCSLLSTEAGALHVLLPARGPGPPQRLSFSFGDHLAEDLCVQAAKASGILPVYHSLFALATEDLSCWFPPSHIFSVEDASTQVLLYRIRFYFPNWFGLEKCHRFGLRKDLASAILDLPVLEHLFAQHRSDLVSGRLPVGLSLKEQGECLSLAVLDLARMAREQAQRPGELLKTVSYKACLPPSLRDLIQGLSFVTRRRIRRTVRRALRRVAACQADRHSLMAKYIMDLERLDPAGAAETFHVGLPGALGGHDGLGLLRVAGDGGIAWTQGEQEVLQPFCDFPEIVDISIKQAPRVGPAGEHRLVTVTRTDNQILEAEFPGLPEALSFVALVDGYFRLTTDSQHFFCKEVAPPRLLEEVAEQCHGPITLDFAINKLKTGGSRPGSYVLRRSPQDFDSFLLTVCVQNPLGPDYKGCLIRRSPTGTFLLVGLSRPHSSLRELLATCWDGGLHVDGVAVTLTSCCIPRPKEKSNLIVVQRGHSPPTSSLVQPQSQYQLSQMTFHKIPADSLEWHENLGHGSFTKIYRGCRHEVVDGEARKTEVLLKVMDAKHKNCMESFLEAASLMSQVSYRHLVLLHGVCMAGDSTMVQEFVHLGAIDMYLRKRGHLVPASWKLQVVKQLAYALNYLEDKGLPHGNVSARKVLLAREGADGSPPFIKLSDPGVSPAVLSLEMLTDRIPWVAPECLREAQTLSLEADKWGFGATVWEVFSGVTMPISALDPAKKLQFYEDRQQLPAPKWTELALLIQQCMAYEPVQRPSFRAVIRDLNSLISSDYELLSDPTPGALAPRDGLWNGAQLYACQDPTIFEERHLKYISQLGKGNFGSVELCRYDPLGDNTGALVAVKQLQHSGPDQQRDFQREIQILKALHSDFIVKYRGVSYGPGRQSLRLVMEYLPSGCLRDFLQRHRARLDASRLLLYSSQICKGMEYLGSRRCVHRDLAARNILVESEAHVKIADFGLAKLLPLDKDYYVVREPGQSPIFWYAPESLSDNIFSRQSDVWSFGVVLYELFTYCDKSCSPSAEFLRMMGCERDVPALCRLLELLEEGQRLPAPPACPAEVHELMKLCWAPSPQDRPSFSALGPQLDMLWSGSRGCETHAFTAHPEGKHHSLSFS
Procedure: (§1) The degradation-inducing effect of the compound of the present invention on JAK family proteins was evaluated in vitro using Jurkat cells, of which cell line was derived from human leukemic T cells.
(§2) JAK1, JAK2, JAK3, and Tyk2-positive Jurkat cells were seeded at a density of 1×10^5 cells/mL on 10 cm diameter dishes and then cultured in RPMI 1640 medium (FUJIFILM Wako Pure Chemical: catalog number: 189-02025) containing 10% FBS (Thermo Fisher Scientific: catalog number: 10437-028) at 5% CO2 and 37° C. for 3 days. Then, each of the test compounds (compounds of Examples 1 to 11 and Comparative Examples 1 and 2) was added to the dish at a final concentration of 1 μmol/L, and the cells were cultured in the presence of the test compound for 6 hours. After that, the cell culture medium was collected in a 15 mL centrifuge tube (1000 rpm (240× g), room temperature, 5 min), followed by washing with PBS (1000 rpm (240× g), room temperature, 5 min). Then, the cells in the centrifuge tube were collected in a 1.5 mL tube (3000 rpm (860× g), 4° C., 5 min), lysed using RIPA buffer (25 mmol/L Tris-HCl (pH 7.4), 25 mmol/L NaCl, 0.5 mmol/L EGTA (pH 8.0), 0.1% SDS, 1% protease inhibitor), sonicated at ice temperature (cycles of [7.5 sec sonication, 5 sec off] for 5 min) and subjected to centrifugation (15000 rpm (21600× g), 4° C., 30 min). The thus-obtained supernatant was used as the protein solution. Using the BCA protein assay kit (Thermo Fisher Scientific: catalog number: 23225), the protein concentration of the protein solution of each test compound was measured according to the kit instructions, and then adjusted to 1.4 mg/mL with RIPA buffer. The thus-adjusted protein solutions were subjected to a fully automated Western blotting device (Simple Westerns Wes: proteinSimple) to detect the protein levels (JAK1, JAK2, JAK3, and Tyk2 as the target proteins, and GAPDH (Glyceraldehyde 3-phosphate dehydrogenase) as the internal standard protein) in the protein solutions by chemiluminescent Western blotting.
(§3) Furthermore, the luminescence levels of JAK1, JAK2, JAK3, and Tyk2 detected by chemiluminescent Western blotting were quantified numerically by using an analysis software (Compass software for Simple Western (version 4.0.0)) attached to the fully automated Western blotting device. The numerical values of the quantified luminescence levels were corrected by the protein levels of the internal standard protein, i.e., GAPDH, (target protein levels/GAPDH protein levels), and compared among the test compounds with dimethyl sulfoxide (DMSO) as 100%.

JAK2 = biological target: T2, JAK2 (Homo sapiens, UniProt O60674); assay: Degradation-inducing effect on JAK in Jurkat cells (chemiluminescent Western blotting), JAK2; conditions: 1 μmol/L, 6 hours, corrected by GAPDH, DMSO as 100%
T2 construct: endogenous in cells; host or cells: Jurkat cells
Procedure: as §1, §2, §3

JAK1 = biological target: T3, JAK1 (Homo sapiens, UniProt P23458); assay: Degradation-inducing effect on JAK in Jurkat cells (chemiluminescent Western blotting), JAK1; conditions: 1 μmol/L, 6 hours, corrected by GAPDH, DMSO as 100%
T3 construct: endogenous in cells; host or cells: Jurkat cells
Procedure: as §1, §2, §3

Tyk2 = biological target: T4, Tyk2 (Homo sapiens, UniProt P29597); assay: Degradation-inducing effect on JAK in Jurkat cells (chemiluminescent Western blotting), Tyk2; conditions: 1 μmol/L, 6 hours; for JAK protein ratio of Jurkat cells after treatment of each test compound: Tyk2: corrected by GAPDH, DMSO as 100%
T4 construct: endogenous in cells; host or cells: Jurkat cells
Procedure: as §1, §2, §3

T4 sequence (P29597 whole entry): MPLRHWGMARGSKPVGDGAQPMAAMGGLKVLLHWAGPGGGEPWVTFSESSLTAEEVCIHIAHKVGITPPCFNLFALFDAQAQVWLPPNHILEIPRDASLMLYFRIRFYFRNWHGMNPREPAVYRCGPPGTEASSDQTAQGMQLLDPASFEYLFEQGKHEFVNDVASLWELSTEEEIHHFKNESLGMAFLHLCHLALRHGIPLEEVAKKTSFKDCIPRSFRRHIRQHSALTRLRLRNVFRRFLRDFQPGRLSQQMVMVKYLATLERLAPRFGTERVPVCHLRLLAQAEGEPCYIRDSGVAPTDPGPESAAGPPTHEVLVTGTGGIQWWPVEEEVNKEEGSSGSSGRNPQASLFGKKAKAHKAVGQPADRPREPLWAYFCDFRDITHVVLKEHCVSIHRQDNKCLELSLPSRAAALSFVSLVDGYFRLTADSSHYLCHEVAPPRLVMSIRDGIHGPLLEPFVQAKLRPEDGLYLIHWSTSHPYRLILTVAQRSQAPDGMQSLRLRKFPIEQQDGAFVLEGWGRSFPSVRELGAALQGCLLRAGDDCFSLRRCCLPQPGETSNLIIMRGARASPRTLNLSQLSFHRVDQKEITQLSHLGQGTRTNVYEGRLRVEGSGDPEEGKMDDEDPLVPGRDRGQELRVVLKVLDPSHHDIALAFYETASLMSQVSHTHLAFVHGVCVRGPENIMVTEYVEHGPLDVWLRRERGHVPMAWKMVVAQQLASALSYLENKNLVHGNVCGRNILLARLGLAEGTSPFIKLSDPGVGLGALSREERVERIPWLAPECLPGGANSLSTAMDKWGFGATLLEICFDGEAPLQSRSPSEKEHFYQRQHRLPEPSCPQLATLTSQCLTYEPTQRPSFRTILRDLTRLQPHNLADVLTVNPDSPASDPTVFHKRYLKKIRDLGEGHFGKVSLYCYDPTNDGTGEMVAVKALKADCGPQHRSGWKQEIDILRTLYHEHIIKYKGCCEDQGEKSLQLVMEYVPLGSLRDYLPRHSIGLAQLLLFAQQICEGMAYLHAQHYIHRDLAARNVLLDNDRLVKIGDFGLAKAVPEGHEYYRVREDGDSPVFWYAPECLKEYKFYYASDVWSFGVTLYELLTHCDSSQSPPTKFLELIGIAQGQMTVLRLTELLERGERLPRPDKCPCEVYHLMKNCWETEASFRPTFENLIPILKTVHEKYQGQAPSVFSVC
T3 sequence (P23458 whole entry): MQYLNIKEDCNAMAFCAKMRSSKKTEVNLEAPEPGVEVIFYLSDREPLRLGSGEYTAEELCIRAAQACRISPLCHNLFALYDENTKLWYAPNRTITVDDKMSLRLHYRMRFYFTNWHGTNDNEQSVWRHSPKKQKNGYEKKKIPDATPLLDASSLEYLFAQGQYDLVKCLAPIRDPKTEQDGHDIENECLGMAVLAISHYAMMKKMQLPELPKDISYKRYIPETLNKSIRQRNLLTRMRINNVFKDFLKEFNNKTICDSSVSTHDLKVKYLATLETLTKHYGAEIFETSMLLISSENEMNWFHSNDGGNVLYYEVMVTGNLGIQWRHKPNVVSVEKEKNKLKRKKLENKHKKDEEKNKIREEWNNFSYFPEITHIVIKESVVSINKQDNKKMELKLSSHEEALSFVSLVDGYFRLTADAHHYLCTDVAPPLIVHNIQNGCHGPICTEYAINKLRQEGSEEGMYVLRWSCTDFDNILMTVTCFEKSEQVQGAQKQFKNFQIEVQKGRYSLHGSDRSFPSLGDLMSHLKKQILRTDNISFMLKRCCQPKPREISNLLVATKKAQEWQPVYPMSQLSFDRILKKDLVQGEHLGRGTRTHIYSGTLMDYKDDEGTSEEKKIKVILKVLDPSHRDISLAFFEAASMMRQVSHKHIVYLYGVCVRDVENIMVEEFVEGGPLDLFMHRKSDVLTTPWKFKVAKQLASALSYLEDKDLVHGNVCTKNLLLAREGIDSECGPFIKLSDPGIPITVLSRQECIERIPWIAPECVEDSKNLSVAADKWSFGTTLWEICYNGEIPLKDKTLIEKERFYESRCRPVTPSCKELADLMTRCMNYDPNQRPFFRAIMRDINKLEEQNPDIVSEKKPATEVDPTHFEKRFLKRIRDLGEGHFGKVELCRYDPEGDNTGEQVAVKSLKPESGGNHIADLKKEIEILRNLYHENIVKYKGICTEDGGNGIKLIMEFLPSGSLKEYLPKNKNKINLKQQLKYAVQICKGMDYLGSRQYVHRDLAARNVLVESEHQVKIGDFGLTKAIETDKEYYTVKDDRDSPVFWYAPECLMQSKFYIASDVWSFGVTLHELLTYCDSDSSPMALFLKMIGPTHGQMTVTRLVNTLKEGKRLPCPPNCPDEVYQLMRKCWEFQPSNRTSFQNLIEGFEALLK
T2 sequence (O60674 whole entry): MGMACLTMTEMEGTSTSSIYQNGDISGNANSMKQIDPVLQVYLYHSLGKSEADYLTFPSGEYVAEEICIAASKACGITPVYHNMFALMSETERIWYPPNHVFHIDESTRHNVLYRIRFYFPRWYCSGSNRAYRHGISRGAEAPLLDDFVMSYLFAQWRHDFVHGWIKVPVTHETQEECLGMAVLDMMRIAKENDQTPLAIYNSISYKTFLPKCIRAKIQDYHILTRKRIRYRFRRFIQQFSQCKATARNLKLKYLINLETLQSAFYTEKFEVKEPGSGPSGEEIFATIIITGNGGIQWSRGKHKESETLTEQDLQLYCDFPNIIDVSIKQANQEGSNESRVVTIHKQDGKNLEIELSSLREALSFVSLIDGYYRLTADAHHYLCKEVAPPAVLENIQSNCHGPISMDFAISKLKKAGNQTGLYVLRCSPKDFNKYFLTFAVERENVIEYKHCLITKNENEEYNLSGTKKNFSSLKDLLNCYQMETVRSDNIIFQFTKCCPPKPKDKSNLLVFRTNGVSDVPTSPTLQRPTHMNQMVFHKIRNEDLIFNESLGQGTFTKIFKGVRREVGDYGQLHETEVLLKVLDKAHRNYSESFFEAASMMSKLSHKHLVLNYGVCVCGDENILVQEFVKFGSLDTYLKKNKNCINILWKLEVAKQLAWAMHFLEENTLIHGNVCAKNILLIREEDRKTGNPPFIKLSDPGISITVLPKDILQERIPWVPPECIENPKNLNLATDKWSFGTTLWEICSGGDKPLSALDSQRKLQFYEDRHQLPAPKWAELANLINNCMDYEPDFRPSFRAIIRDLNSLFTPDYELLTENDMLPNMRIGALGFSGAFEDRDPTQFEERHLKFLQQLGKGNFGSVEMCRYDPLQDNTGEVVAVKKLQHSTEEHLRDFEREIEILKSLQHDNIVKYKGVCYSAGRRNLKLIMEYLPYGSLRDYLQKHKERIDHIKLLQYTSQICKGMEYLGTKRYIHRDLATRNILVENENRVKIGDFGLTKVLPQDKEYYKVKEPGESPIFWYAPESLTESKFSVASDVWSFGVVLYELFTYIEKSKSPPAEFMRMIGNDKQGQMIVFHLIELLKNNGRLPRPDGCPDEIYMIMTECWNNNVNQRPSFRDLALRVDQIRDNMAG

For `CNC(=O)c1cnc(Nc2ccc(C(=O)NCCCCCCCC(=O)N[C@H](C(=O)N3C[C@H](O)C[C@H]3C(=O)NCc3ccc(-c4scnc4C)cc3)C(C)(C)C)cn2)cc1Nc1cccc(C(=O)NC)c1OC` [Example 3, 6-((5-((8-(((S)-1-((2S,4R)-4-Hydroxy-2-((4-(4-methylthiazol-5-yl)benzyl)carbamoyl)pyrrolidin-1-yl)-3,3-dimethyl-1-oxobutan-2-yl)amino)-8-oxooctyl)carbamoyl)pyridin-2-yl)amino)-4-((2-methoxy-3-(methylcarbamoyl)phenyl)amino)-N-methylnicotinamide], the JAK3 protein level relative to DMSO at 1 µM (JAK3) was 97.5%, the “JAK protein ratio of Jurkat cells after treatment of each test compound: JAK2” value (“JAK protein ratio of Jurkat cells … JAK2” below) (JAK2) was 117.6% and the “JAK protein ratio of Jurkat cells after treatment of each test compound: JAK1” value (from here on “JAK protein ratio of Jurkat cells … JAK1”) (JAK1) was 118.2%. The “JAK protein ratio of Jurkat cells after treatment of each test compound: Tyk2” value (shortened to “JAK protein ratio of Jurkat cells … Tyk2”) (Tyk2) was 51.6%.

`CNC(=O)c1cnc(Nc2ccc(C(=O)NCCCCCCCCCC(=O)N[C@H](C(=O)N3C[C@H](O)C[C@H]3C(=O)NCc3ccc(-c4scnc4C)cc3)C(C)(C)C)cn2)cc1Nc1cccc(C(=O)NCCO)c1OC` [Example 11, 6-((5-((10-(((S)-1-((2S,4R)-4-hydroxy-2-((4-(4-methylthiazol-5-yl)benzyl)carbamoyl)pyrrolidin-1-yl)-3,3-dimethyl-1-oxobutan-2-yl)amino)-10-oxodecyl)carbamoyl)pyridin-2-yl)amino)-4-((3-((2-hydroxyethyl)carbamoyl)-2-methoxyphenyl)amino)-N-methylnicotinamide] was tested, and the JAK3 protein level relative to DMSO at 1 µM (JAK3) was 103%, the “JAK protein ratio of Jurkat cells … JAK2” value (JAK2) was 132.2% and the “JAK protein ratio of Jurkat cells … JAK1” value (JAK1) was 114.4%. The “JAK protein ratio of Jurkat cells … Tyk2” value (Tyk2) was 55.1%.

In the case of `CNC(=O)c1cnc(Nc2ccc(C(=O)NCCCCCCCCCC(=O)N[C@H](C(=O)N3C[C@H](O)C[C@H]3C(=O)NCc3ccc(-c4scnc4C)cc3)C(C)(C)C)cn2)cc1Nc1cccc(C(=O)NC)c1OC` [Example 5, 6-((5-((10-(((S)-1-((2S,4R)-4-Hydroxy-2-((4-(4-methylthiazol-5-yl)benzyl)carbamoyl)pyrrolidin-1-yl)-3,3-dimethyl-1-oxobutan-2-yl)amino)-10-oxodecyl)carbamoyl)pyridin-2-yl)amino)-4-((2-methoxy-3-(methylcarbamoyl)phenyl)amino)-N-methylnicotinamide], the JAK3 protein level relative to DMSO at 1 µM (JAK3) is reported as 112%, the “JAK protein ratio of Jurkat cells … JAK2” value (JAK2) is reported as 121.0% and the “JAK protein ratio of Jurkat cells … JAK1” value (JAK1) is reported as 122.8%. For the same molecule, the “JAK protein ratio of Jurkat cells … Tyk2” value (Tyk2) was 23.1%.

In the case of `CNC(=O)c1cnc(Nc2ccc(C(=O)NCCCCCCCCCCCC(=O)N[C@H](C(=O)N3C[C@H](O)C[C@H]3C(=O)NCc3ccc(-c4scnc4C)cc3)C(C)(C)C)cn2)cc1Nc1cccc(C(=O)NC)c1OC` [Example 7, 6-((5-((12-(((S)-1-((2S,4R)-4-Hydroxy-2-((4-(4-methylthiazol-5-yl)benzyl)carbamoyl)pyrrolidin-1-yl)-3,3-dimethyl-1-oxobutan-2-yl)amino)-12-oxododecyl)carbamoyl)pyridin-2-yl)amino)-4-((2-methoxy-3-(methylcarbamoyl)phenyl)amino)-N-methylnicotinamide], the JAK3 protein level relative to DMSO at 1 µM (JAK3) is reported as 112%, the “JAK protein ratio of Jurkat cells … JAK2” value (JAK2) is reported as 108.2% and the “JAK protein ratio of Jurkat cells … JAK1” value (JAK1) is reported as 112.1%. For the same molecule, the “JAK protein ratio of Jurkat cells … Tyk2” value (Tyk2) was 47.1%.

With `CNC(=O)c1cnc(Nc2ccc(F)cn2)cc1Nc1cccc(C(=O)OCCCCCCCCCC(=O)N[C@H](C(=O)N2C[C@H](O)C[C@H]2C(=O)NCc2ccc(-c3scnc3C)cc2)C(C)(C)C)c1OC` [Comparative Example 2, 10-(((S)-1-((2S,4R)-4-Hydroxy 2-((4-(4-methylthiazol-5-yl)benzyl)carbamoyl)pyrrolidin-1-yl)-3,3-dimethyl-1-oxobutan-2-yl)amino)-10-oxodecyl 3-((2-((5-fluoropyridin-2-yl)amino)-5-(methylcarbamoyl)pyridin-4-yl)amino)-2-methoxybenzoate, reference compound] the JAK3 protein level relative to DMSO at 1 µM (JAK3) was 89.8%, the “JAK protein ratio of Jurkat cells … JAK2” value (JAK2) was 101.7% and the “JAK protein ratio of Jurkat cells … JAK1” value (JAK1) was 108.7%. The “protein level of Tyk2 (in words)” value (Tyk2) was “not reduced” and the “JAK protein ratio of Jurkat cells … Tyk2” value (Tyk2) was 100.1%.
